Assay results published in the NIST ThermoML archive (doi:10.1021/acs.jced.5b00796).
± gives the expanded uncertainty stated by the source.

Settings: Liquid, Ebulliometric method (Recirculating still)

| Compound | vapor or sublimation pressure (337.85 K) [kPa] | vapor or sublimation pressure (354.25 K) [kPa] |
| --- | --- | --- |
| CO [methanol] | 101.32 ± 1 |  |
| CC#N [acetonitrile] |  | 101.32 ± 1 |
